From US20050009924A1 (priority 2003, published 2005)
Counter-ions that a name gives are not always drawn.

How the values were obtained:
[1] = test system: iron-induced lipid peroxidation in rat brain homogenates; test: Iron-induced lipid peroxidation in rat brain homogenates; settings: for LP (%) (10 mM): relative percentage of inhibition (Table 1)
[2] = MTT relative viability, PhTERT-SEAP (H1299) cells; settings: human
[3] = test system: transcriptional activity of hTERT; test: SEAP reporter assay of hTERT expression, PhTERT-SEAP (H1299); format: cell-based, human; settings: for Relative SEAP activity (%) / SEAP/vibility: PhTERT-SEAP(hTERT-H1299)
In short: (§1)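 SEAP activity, read as rate of 405 nm absorbance rise with 12 mM p-nitrophenyl phosphate in diethanolamine/MgCl2/homoarginine buffer after 65 °C, 10 min heat inactivation, reports hTERT or CMV promoter activity. G418-selected stable H1299 or hTERT-BJ1 reporter lines were exposed to drug for 24 h.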

[4] = test system: rat glioma C6 cells; test: Cytotoxicity assay (XTT colorimetric), C6 cells; format: cell-based; settings: 48 h of drug exposure
[5] = MTT relative viability, PhTERT-SEAP (hTERT-BJ1) cells; settings: human
Method: (§2) The tetrazolium reagent (MTT; 3-(4,5-di-methylthiazol)-2,5-diphenyl tetrazolium bromide, USB) was designed to yield a colored formazan upon metabolic reduction by viable cells. Approximately […] cells were plated onto each well of a 96-well plate and incubated in 5% CO2 at 37° C. for 24 h. To assess the in vitro cytotoxicity, each compound was dissolved in DMSO and prepared immediately before the experiments and was diluted into the complete medium before addition to cell cultures. Test compounds were then added to the culture medium for designated various concentrations. After 48 h, an amount of 25 μL of MTT was added to each well, and the samples were incubated at 37° C. for 4 h. A 100 μL solution of lysis buffer containing 20% SDS and 50% N,N-dimethylformamide was added to each well and incubated at 37° C. for another 16 h. The absorbency at 550 nm was measured using an ELISA reader.
(§3) Non small lung cancer cells H1299 (telomerase positive) were grown in RPMI 1640 media supplemented with 10% fetal bovine serum, 100 units/mL penicillin and 100 mg/mL streptomycin in a humidified atmosphere with 5% CO2 at 37° C. The hTERT immortalized hTERT-BJ1 (BD Biosciences Clontech)^39 were grown in DMEM media supplemented with 10% fetal calf serum, 100 units/mL penicillin and 100 mg/mL streptomycin, 1 mM sodium pyruvate, and 4 mM I-arginine in a humidified atmosphere with 5% CO2 at 37° C. Culture media were changed every 3 days. […] The stable clones derived from H1299 or hTERT-BJ1 were cultured using conditions that are similar to their parental cells.

[6] = test system: human hepatoma G2 cells; test: Cytotoxicity assay (XTT colorimetric), Hep G2; format: cell-based; settings: 48 h of drug exposure
[7] = test system: transcriptional activity of hTERT; test: SEAP reporter assay of hTERT expression, PhTERT-SEAP (hTERT-BJ1); format: cell-based, human; settings: for Relative SEAP activity (%) / SEAP/vibility: PhTERT-SEAP (hTERT-BJ1)
In short: as §1

[8] = test system: non-small-cell lung cancer cells H1299; test: MTT relative viability, PhTERT-SEAP (H1299) cells; settings: PhTERT-SEAP(hTERT-H1299)
[9] = test system: hepatitis B virus transfected hepatoma cell lines, HepG 2.2.15 cells; test: Cytotoxicity assay, 2.2.15 cells; format: cell-based, human; settings: 48 h of drug exposure
[10] = test system: hTERT-BJ1 cells; test: MTT relative viability, PhTERT-SEAP (hTERT-BJ1) cells; settings: PhTERT-SEAP (hTERT-BJ1)
Method: as §2, §3

SMILES: O=C1O[C@H]([C@@H](O)CO)C(O)=C1O [Ascorbic acid, reference compound]
- Inhibition (%) ([1]; 0.01 mM): 10 ± 0.6%
- Inhibition (%) ([1]; 0.1 mM): 32 ± 1.2%
- Inhibition (%) ([1]; 1 mM): 75 ± 1.5%
- Inhibition (%) ([1]; 10 mM): 100%
- Inhibition of LP(10 mM) ([1]; 10 mM, mean percent inhibition (Table 3)): >100%
- LP (%) (10 mM) ([1]; 10 mM): >100%

SMILES: O=C1c2cccc(SCCO)c2C(=O)c2cccc(SCCO)c21 [IIb, 1,5-Bis(hydroxyethylthio)-anthraquinone]
- viability at 48 h, 2.8 µM [2]: 54 ± 4%
- viability at 48 h, 28 µM [2]: 29 ± 7%
- viability at 48 h, 280 µM [2]: 36 ± 7.2%
- LP (%) (10 mM) ([1]; 10 mM): 16 ± 2.2%
- activity at 2.8 µM ([3]; Homo sapiens, NCI-H1299, 2.8 μM, H1299, read-out: Relative SEAP activity (%)): 97 ± 15.7%
- activity at 28 µM ([3]; Homo sapiens, NCI-H1299, 28 μM, H1299, read-out: Relative SEAP activity (%)): 76 ± 12.4%
- activity at 280 µM ([3]; Homo sapiens, NCI-H1299, 280 μM, H1299, read-out: Relative SEAP activity (%)): 45 ± 2.7%
- IC50 ([4]; Rattus norvegicus, C6): 21.5 ± 0.8 µM
- viability at 48 h, 2.8 µM [5]: 94 ± 9.3%
- viability at 48 h, 28 µM [5]: 49 ± 2.9%
- viability at 48 h, 280 µM [5]: 23 ± 2.9%
- IC50 ([6]; Homo sapiens, HepG2): 36.4 ± 1.5 µM
- activity at 2.8 µM ([7]; Homo sapiens, 2.8 μM, hTERT-BJ1, read-out: Relative SEAP activity (%)): 104 ± 15.7%
- activity at 28 µM ([7]; Homo sapiens, 28 μM, hTERT-BJ1, read-out: Relative SEAP activity (%)): 98 ± 10.9%
- activity at 280 µM ([7]; Homo sapiens, 280 μM, hTERT-BJ1, read-out: Relative SEAP activity (%)): 71 ± 5%

SMILES: O=C1c2c(O)ccc(O)c2C(=O)c2c(NCCNCCO)ccc(NCCNCCO)c21 [Mitoxantrone-HCl, reference compound]
- Inhibition (%) ([1]; 0.01 mM): 5 ± 0.3%
- Inhibition (%) ([1]; 0.1 mM): 22 ± 3.5%
- Inhibition (%) ([1]; 1 mM): 54 ± 2.1%
- Inhibition (%) ([1]; 10 mM): 100%

SMILES: O=C(Nc1ccc(NC(=O)c2ccc(F)cc2)c2c1C(=O)c1ccccc1C2=O)c1ccc(F)cc1 [VI30, 1,4-Bis(4-fluorobenzoylamido)-9,10-anthracenedione]
- Relative MTT viability (%) ([8]; 2.0 μM): 110 ± 5.9%
- Relative MTT viability (%) ([8]; 20 μM): 103 ± 6.6%
- Relative MTT viability (%) ([8]; 207 μM): 89 ± 6.7%
- IC50 [9]: > 20 µM
- Relative SEAP activity (%) ([3]; 2.0 μM): 111 ± 3.6%
- SEAP/vibility ([3]; 2.0 μM): 1.01
- Relative SEAP activity (%) ([3]; 20 μM): 107 ± 4.8%
- SEAP/vibility ([3]; 20 μM): 1.04
- Relative SEAP activity (%) ([3]; 207 μM): 107 ± 9.0%
- SEAP/vibility ([3]; 207 μM): 1.20
- IC50 [4]: > 20 µM
- Relative MTT viability (%) ([10]; 2.0 μM): 103 ± 9.0%
- Relative MTT viability (%) ([10]; 20 μM): 107 ± 3.1%
- Relative MTT viability (%) ([10]; 207 μM): 83 ± 5.3%
- IC50 [6]: > 20 µM
- Relative SEAP activity (%) ([7]; 2.0 μM): 104 ± 16.3%
- SEAP/vibility ([7]; 2.0 μM): 1.01
- Relative SEAP activity (%) ([7]; 20 μM): 101 ± 27.6%
- SEAP/vibility ([7]; 20 μM): 0.95
- Relative SEAP activity (%) ([7]; 207 μM): 100 ± 14.5%
- SEAP/vibility ([7]; 207 μM): 1.20

SMILES: O=C(Nc1ccc(NC(=O)c2ccc(C(F)(F)F)cc2)c2c1C(=O)c1ccccc1C2=O)c1ccc(C(F)(F)F)cc1 [VI31, 1,4-Bis(4-trifluorobenzoylamido)-9,10-anthracenedione]
- Relative MTT viability (%) ([8]; 1.7 μM): 98 ± 7.8%
- Relative MTT viability (%) ([8]; 17 μM): 100 ± 8.9%
- Relative MTT viability (%) ([8]; 171 μM): 77 ± 6.7%
- IC50 [9]: > 20 µM
- Relative SEAP activity (%) ([3]; 1.7 μM): 110 ± 5.5%
- SEAP/vibility ([3]; 1.7 μM): 1.12
- Relative SEAP activity (%) ([3]; 17 μM): 114 ± 5.6%
- SEAP/vibility ([3]; 17 μM): 1.14
- Relative SEAP activity (%) ([3]; 171 μM): 96 ± 2.1%
- SEAP/vibility ([3]; 171 μM): 1.24
- IC50 [4]: > 20 µM
- Relative MTT viability (%) ([10]; 1.7 μM): 98 ± 4.4%
- Relative MTT viability (%) ([10]; 17 μM): 100 ± 3.4%
- Relative MTT viability (%) ([10]; 171 μM): 89 ± 3.6%
- IC50 [6]: > 20 µM
- Relative SEAP activity (%) ([7]; 1.7 μM): 100 ± 15.1%
- SEAP/vibility ([7]; 1.7 μM): 1.02
- Relative SEAP activity (%) ([7]; 17 μM): 90 ± 16.3%
- SEAP/vibility ([7]; 17 μM): 0.90
- Relative SEAP activity (%) ([7]; 171 μM): 103 ± 17.6%
- SEAP/vibility ([7]; 171 μM): 1.16

SMILES: NCC1CC1CCC(=O)Nc1ccc(NC(=O)CCC2CC2CN)c2c1C(=O)c1ccccc1C2=O (stereo not shown) [VI36, 1,4-Bis[2-(aminomnethyl)cyclopropanepropionamido]-9,10-anthracenedione]
- Relative MTT viability (%) ([8]; 2.0 μM): 106 ± 4.1%
- Relative MTT viability (%) ([8]; 20 μM): 64 ± 5.1%
- Relative MTT viability (%) ([8]; 204 μM): 30 ± 4.7%
- IC50 [9]: 3.46 µM
- Relative SEAP activity (%) ([3]; 2.0 μM): 123 ± 12.4%
- SEAP/vibility ([3]; 2.0 μM): 1.16
- Relative SEAP activity (%) ([3]; 20 μM): 112 ± 11.5%
- SEAP/vibility ([3]; 20 μM): 1.76
- Relative SEAP activity (%) ([3]; 204 μM): 80 ± 14.5%
- SEAP/vibility ([3]; 204 μM): 2.71
- IC50 [4]: 2.76 µM
- Relative MTT viability (%) ([10]; 2.0 μM): 103 ± 6.4%
- Relative MTT viability (%) ([10]; 20 μM): 92 ± 11.4%
- Relative MTT viability (%) ([10]; 204 μM): 104 ± 17.4%
- IC50 [6]: 6.46 µM
- Relative SEAP activity (%) ([7]; 2.0 μM): 91 ± 19.4%
- SEAP/vibility ([7]; 2.0 μM): 0.88
- Relative SEAP activity (%) ([7]; 20 μM): 95 ± 14.2%
- SEAP/vibility ([7]; 20 μM): 1.03
- Relative SEAP activity (%) ([7]; 204 μM): 65 ± 15.7%
- SEAP/vibility ([7]; 204 μM): 0.63
